For data set [1], the system named is breast cancer cells (MDA-MB-231). The experiment in a line: Direct apoptosis, PI and Annexin V staining, FACS. It is filed as cell-based, human. To be noted: 48 hours from transfection. As to the method:
To investigate whether apoptosis could induced directly by ANT2 siRNA, the present inventors performed staining with propidium iodide (PI) and Annexin V.
Particularly, the cells were transfected respectively with ANT2 siRNA and scrambled siRNA, followed by culture for 24-48 hours. The cells were washed with PBS, to which PI and Annexin V were added. After reaction at room temperature for 15 minutes, […] was measured by FACS.

The subject of a further data set is MCF7 cells. The experiment in a line: Sensitivity to TRAIL, CCK8 assay, MCF7. It counts as cell-based. As for the experimental part: (§1) As breast cancer cell lines in this experiment, MCF7 resistant to TRAIL, and MDA-MB-231 highly sensitive to TRAIL were employed. MCF7 and MDA-MB-231 were treated with TRAIL at various concentrations after which cell death was analyzed with a CCK8 reagent. The CCK8 assay is a cell viability assay. Specifically, 100 μL of a cell suspension was placed onto each well (1×10^4 cells/well). The cells were treated with 10-fold serial dilutions of TRAIL starting from 1 μg/mL to zero, followed by incubation for 12 hrs. After the addition of 10 μL of the CCK8 reagent, the cells were incubated for a proper time (4 hours) in a CO2 incubator and measured for absorbance at 450 nm to analyze cell death.
However, the introduction of ANT2 shRNA into MCF7 cells induced apoptosis (−25%). […] As for a negative control, it was PBS for TRAIL, and sc shRNA (scrambled shRNA) for ANT2 shRNA.
After being treated with TRAIL alone, ANT2 shRNA alone, and TRAIL and ANT2 shRNA in combination, MCF7 cells, resistant to TRAIL, were examined for apoptosis, and the results are shown in FIG. 24C.
Furthermore, treatment with the p53 inhibitor (pifithrin-alpha) suppressed the up-regulation of TRAIL-mediated apoptosis by ANT2 shRNA, which confirmed that the introduction of ANT2 shRNA induced the expression and activity of p53, leading to an increase in sensitivity to TRAIL. The cell death was quantified using a CCK8 assay, with the use of PBS as a negative control for the p53 inhibitor (FIG. 28).
For orientation: Tetrazolium assays rely on reduction of a dye to a coloured formazan, in cell work by metabolically active cells.

The test system of the next data set is DR4, DR5, DcR1 and DcR2. The experiment in a line: Expression of TRAIL receptors by Western blots, MCF7. As to conditions: MCF7, pre-treatment with p53 inhibitor. It counts as cell-based. As to the method: The breast cancer cell lines MCF7 and MDA-MB-231, which are different in sensitivity to TRAIL from each other, were analyzed for expression levels of the receptors DR4, DR5, DcR1, and DcR2, all binding to TRAIL, by Western blots.
Upon the introduction of ANT2 shRNA, expression patterns of TRAIL receptors were examined, and the results are given in FIG. 26B. […] In T47D and BT474 cell lines, which are known to have TRAIL resistance, the same effects as in MCF7 were observed. That is, the introduction of ANT2 shRNA increased the expression of DR4 and DR5, but decreased the expression of DcR1 and DcR2 (FIG. 26C).
In addition, an experiment was performed to reconfirm that the introduction of ANT2 shRNA induces the expression and activity of p53, thus up-regulating the TRAIL receptors DR4 and DR5.

Data set [2] deals with breast cancer cell line MCF7. Briefly: Sensitivity to doxorubicin, CCK8 assay, MCF7. To be noted: MCF7 progenitor cells (CD44+/CD24−) vs mixed population. It is filed as cell-based. As for the experimental part: The breast cancer cell line MCF7, which has a minor proportion of progenitor cells (CD44+/CD24−), was treated with various concentrations of doxorubicin, widely used for the treatment of breast cancer, after which apoptosis was quantitatively analyzed using a CCK8 assay.

The subject of a further data set is MDA-MB-231 cell line. The experiment in a line: Sensitivity to doxorubicin, CCK8 assay, MDA-MB-231. It counts as cell-based, human. To be noted: MDA-MB-231, doxorubicin 10 μM to zero, 10 hrs, no ANT2 shRNA. As for the experimental part: The MDA-MB-231 cell line which has a predominant proportion of progenitor cells (CD44+/CD24−) was treated with 10-fold serial dilutions of doxorubicin, a widely used anticancer agent starting from 10 μM to zero, followed by incubation (10 hrs). The assay was conducted in the same manner as in Example 6.

The subject of another data set is MCF7 tumor. Briefly: In vivo tumor growth of MCF7 transplanted into nude mice; RT-PCR of TRAIL receptors in tumors. Further details: species or system Balb/c nude mice. To be noted: TRAIL alone, 10 mg/kg intraperitoneally, three treatments over 45 days. As for the experimental part:
The breast cancer cell line MCF7 resistant to TRAIL was transplanted into immunedeficient Balb/c nude mice. When a tumor grew to a volume of 100 mm^3, they were treated with ANT2 shRNA and TRAIL. In this regard, TRAIL was intraperitoneally injected (10 mg/kg) while ANT2 shRNA was directly injected into the tumor (100 μg; supplemented 200 μl Lipofectamine™2000). At this time, Lipofectamine™2000 was used to deliver ANT2 shRNA into tumor cells. After three treatments over 45 days, the size of tumor was monitored. A same volume of PBS and sc shRNA was used as respective negative controls for TRAIL and […]. On 45th day, the animal models were subjected to euthanasia and the tumors were excised.

The next data set deals with MDA-MB-231 cells. Briefly: Sensitivity to TRAIL, CCK8 assay, MDA-MB-231. It counts as cell-based, human. To be noted: MDA-MB-231, TRAIL at various concentrations, 12 hrs. As to the method: as §1
For data set [3], the system named is breast cancer cell lines T47D and BT474. The experiment in a line: Western blots of apoptosis-induced proteins (PARP, caspase-8/9/7, Bid, cytochrome C). It counts as cell-based. To be noted: TRAIL alone. An excerpt: The increased sensitivity to TRAIL was reconfirmed to be attributed to the knockdown of ANT2 by shRNA. […] The empty vector pcDNA was introduced as a negative control for pcDNA-ANT2. When ANT2 shRNA increased sensitivity to TRAIL to induce apoptosis, the concurrent events of intracellular proteins (cleavage of PARP protein, cleavage of caspase-8/9/7, and truncation of Bid proteins) were detected by Western blots.
Because mitochondria play an important role in the regulation of apoptosis, cytochrome C, which is released from mitochondria to cytoplasm, was quantitatively monitored upon the ANT2 shRNA-triggered, TRAIL-mediated apoptosis. The mitochondrial protein COX IV was used as a loading control to guarantee the use of mitochondrial proteins in the same amount. No changes in the pattern of apoptosis-induced proteins were observed when TRAIL was used alone. […] These changes of intracellular protein patterns confirmed that ANT2 shRNA enhanced TRAIL-mediated apoptosis.
Background: A western blot detects proteins with antibodies after separation by electrophoresis.

For data set [4] the test system is unchanged. The experiment in a line: Sensitivity to TRAIL, CCK8 assay, T47D and BT474. It counts as cell-based. As to conditions: T47D and BT474, TRAIL alone. The text has this:
The same results as MCF7 were detected from the breast cancer cell lines T47D and BT474, both known to be resistant to TRAIL (FIG. 25A). For this, a CCK8 assay was employed to quantify the apoptosis.

The record followed here is US8399426B2, “Method for treating breast cancer using adenine nucleotide translocator 2 (ANT2) siRNA or ANT2 shRNA” (Bioinfra Inc., priority 2006, dated 2013).

Consider “ANT2 siRNA-3: ANT2 siRNA for comparison, SEQ ID NO: 15, 5′-GAUUGCUCGUGAUGAAGGA-3′ (listed as RNA, chemistry not given here)”, for which the “apoptosis, comparison among ANT2 siRNA, ANT2 siRNA-2 and ANT2 siRNA-3” value in data set [1] was “consistent”.
For `Cc1ccc(C(=O)Cn2c3c(sc2=N)CCCC3)cc1` [pifithrin-alpha, reference compound], the “up-regulation of TRAIL-mediated apoptosis by ANT2 shRNA” value with MCF7 cells (MCF7, treatment with p53 inhibitor, CCK8) is reported as “suppressed”. In the data set with DR4, DR5, DcR1 and DcR2, the “up-regulation of DR4 and DR5 by ANT2 shRNA” value was “suppressed”.
On to “ANT2 siRNA-2: ANT2 siRNA for comparison, SEQ ID NO: 14, 5′-CUGACAUCAUGUACACAGG-3′ (listed as RNA, chemistry not given here)”, for which the “apoptosis, comparison among ANT2 siRNA, ANT2 siRNA-2 and ANT2 siRNA-3” value in data set [1] is “consistent”.
As for `COc1cccc2c1C(=O)c1c(O)c3c(c(O)c1C2=O)C[C@@](O)(C(=O)CO)C[C@@H]3O[C@H]1C[C@H](N)[C@H](O)[C@H](C)O1` [doxorubicin], the sensitivity to doxorubicin result in data set [2] is on record as “less sensitive”; in the data set with MDA-MB-231 cell line, “neither progenitor cells (CD44+/CD24−) nor the non-progenitor cells were sensitive”.

B1: TRAIL: TRAIL/apo2 ligand, a member of tumor necrosis factor, can selectively kill cancer cells (protein, UniProt P50591 1-281, looked up)
Tumor necrosis factor ligand …: MAMMEVQGGPSLGQTCVLIVIFTVLLQSLCVAVTYVYFTNELKQMQDKYSKSGIACFLKEDDSYWDPNDEESMNSPCWQVKWQLRQLVRKMILRTSEETISTVQEKQQNISPLVRERGPQRVAAHITGTRGRSNTLSSPNSKNEKALGRKINSWESSRSGHSFLSNLHLRNGELVIHEKGFYYIYSQTYFRFQEEIKENTKNDKQMVQYIYKYTSYPDPILLMKSARNSCWSKDAEYGLYSIYQGGIFELKENDRIFVSVTNEHLIDMDHEASFFGAFLVG
For the molecule B1, in the data set with MCF7 tumor, the tumor growth entry is “no significant influences”. Further, the TRAIL-mediated apoptosis entry in the data set on MDA-MB-231 cells is reported as “induced”; in the data set on MCF7 cells (MCF7, TRAIL at various concentrations, 12 hrs), “did not work”. Besides, the “changes in the pattern of apoptosis-induced proteins” value in data set [3] is listed as “No changes”. Also, the apoptosis result with MCF7 cells (MCF7, TRAIL 100 ng/mL) was “not induced to undergo apoptosis”. Also, in [4], the “response to TRAIL” value is on record as “resistant”.
